The source of these data is patent US12178224B1, “Use of gamma-quaternary ammonium butyrate compound in preparation of an animal feed additive” (ANIPHA TECHNOLOGIES PTY LTD, priority 2019, dated 2024).

One assay deals with tilapia. As to conditions: L-carnitine in basal diet, compared with the blank Control group; cited from earlier work.
The next assay deals with porkers. The assay can be described thus: Effect on the production performance of porkers (breeding test). The format is in vivo. The following applies: 1000 ppm in basal diet, 28 days; for FCR (feed conversion ratio): ADFI/ADG. The text has this:
90 head of “duroc×landrace×Large Yorkshire” three-way cross lean-type pigs with similar weights having an average weight of 80 kg were randomly divided into 3 treatment groups, each group having 3 repetitions, and each repetition having 10 pigs, half male and half female. The pigsty and appliances were sterilized before testing. During the test, the piglets were fed in separate pigpens under the same feeding and management condition in the same pigsty. During the test, the test pigs ate and drank freely, and were fed twice a day. Each test group is a control group (Group I) and test groups II to III, respectively. Wherein, the control group was fed with a basal diet only, and the test groups II to III were fed with diets that were supplemented with 1000 ppm of different γ-quaternary ammonium butyrate compounds on the basis of the basal diet, specifically as shown in Table 1.
During the entire feeding process, no additional antioxidant components or growth promoters were added for each test group. The test period is 28 days, with each repetition as a unit, the pigs were weighed on the 28th day of the test after not stopping water but stopping feeding for 12 hours to calculate the average daily feed intake (ADFI, g/d*head), average daily gain (ADG, g/d*head) and feed conversion ratio (FCR) for each test group. The calculation formulas are as follows: Average daily feed intake=(total amount of feeds-remaining amount of feeds)/(test days×number of pigs per repetition); Average daily gain=(average weight at the end of the test-average weight at the beginning of the test)/test days; Feed conversion ratio=average daily feed intake/average daily gain.

A further assay has as its system broilers. The assay can be described thus: Effect on the production performance of broilers (breeding test). The following applies: 600 ppm in basal diet, 20 days; for FCR (feed conversion ratio): ADFI/ADG. The format is in vivo, Chinese three-yellow-feather broilers. As for the experimental part:
A single-factor random design was adopted for the test. 360 of one-day-old Chinese three-yellow-feather broilers with similar weights having an average weight of 50 g were randomly divided into 3 treatment groups, each group having 6 repetitions, half male and half female, and each repetition having 20 Chinese three-yellow-feather broilers. The henhouse and appliances were sterilized before testing. During the test, the cage rearing was carried out in the same henhouse under the same feeding and management condition. The basal diet is mainly a corn-soybean meal, and no additional antioxidant components or growth promoters were added during the entire feeding process. Each test group is a control group (Group I) and test groups II to III, respectively. Wherein, the control group was fed with the basal diet only, and the test groups II to III were fed with basal diets that were added with 600 ppm of different γ-quaternary ammonium butyrate compounds.
The test period was 20 days in total. The test broilers were free to drink and eat, and were fed twice a day. With each repetition as a unit, the test broilers were weighed at the age of 21 days (stopping feeding for 12 hours, without stopping water) to count the consumption of the test broilers, calculate the average daily feed intake (ADFI, g/d*number of broilers), average daily gain (ADG, g/d*number of broilers) and feed conversion ratio (FCR) of each group of test broilers. The calculation formulas are as follows: Feed conversion ratio (FCR)=average daily feed intake/average daily gain.

For the compound `C[N+](C)(C)C[C@H](O)CC(=O)[O-]` [L-carnitine], the “weight gain rate reduced” value in the assay with tilapia is 1.2%.
As to `C[N+](C)(C)C[C@H](O)CC(=O)OCc1ccccc1` [benzyl L-carnitine chloride], in the assay on porkers, the “ADFI (average daily feed intake)” value stood at 2560 g/d * head, the “ADG (average daily gain)” value is listed as 790 g/d * head and the “FCR (feed conversion ratio)” value turned out to be 3.24. In addition, in the assay with broilers, the “ADFI (average daily feed intake)” value was 32.18 g/d * number of broilers, the “ADG (average daily gain)” value is given as 13.46 g/d * number of broilers and the “FCR (feed conversion ratio)” value is recorded as 2.39.
In the case of `CCOC(=O)C[C@@H](O)C[N+](C)(C)C` [ethyl L-carnitine bromide, ethyl (R)-3-hydroxy-4-(trimethylammonium) butyrate bromide], in the assay on porkers, the “ADFI (average daily feed intake)” value is given as 2624 g/d * head, the “ADG (average daily gain)” value came out at 788 g/d * head and the “FCR (feed conversion ratio)” value was determined as 3.33. For the same compound, in the assay on broilers, the “ADFI (average daily feed intake)” value is 31.34 g/d * number of broilers, the “ADG (average daily gain)” value is given as 13.00 g/d * number of broilers and the “FCR (feed conversion ratio)” value was determined as 2.41.
